Laboratory results taken from ChEMBL document CHEMBL1131022, “Synthesis and biological activity of a novel methylamine-bridged enkephalin analogue (MABE): a new route to cyclic peptides and peptidomimetics” (J Med Chem, 1998).

Assays:
[1] = biological target: Delta-type opioid receptor (Homo sapiens, UniProt P41143); experiment: In vitro potency was measured against human Opioid receptor delta 1
[2] = biological target: Kappa-type opioid receptor (Homo sapiens, UniProt P41145); experiment: In vitro potency was measured against human Opioid receptor kappa 1
Kappa-type opioid receptor, sequence (P41145 whole entry): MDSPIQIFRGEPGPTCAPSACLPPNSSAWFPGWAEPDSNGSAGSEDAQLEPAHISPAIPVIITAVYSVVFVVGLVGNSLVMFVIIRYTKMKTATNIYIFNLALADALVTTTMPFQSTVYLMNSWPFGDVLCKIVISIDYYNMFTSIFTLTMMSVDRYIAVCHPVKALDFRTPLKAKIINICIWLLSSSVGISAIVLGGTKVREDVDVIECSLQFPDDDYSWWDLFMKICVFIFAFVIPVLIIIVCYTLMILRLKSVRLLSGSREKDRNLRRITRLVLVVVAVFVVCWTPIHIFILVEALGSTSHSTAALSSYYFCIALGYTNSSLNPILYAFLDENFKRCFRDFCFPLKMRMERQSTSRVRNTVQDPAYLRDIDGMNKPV

Rattus norvegicus = experiment: In vivo efficacy was measured using thermal escape assay; format: functional
Mu-type opioid receptor = Mu-type opioid receptor (Homo sapiens, UniProt P35372); experiment: In vitro potency was measured against human Opioid receptor mu 1
Mu-type opioid receptor, sequence (P35372 whole entry): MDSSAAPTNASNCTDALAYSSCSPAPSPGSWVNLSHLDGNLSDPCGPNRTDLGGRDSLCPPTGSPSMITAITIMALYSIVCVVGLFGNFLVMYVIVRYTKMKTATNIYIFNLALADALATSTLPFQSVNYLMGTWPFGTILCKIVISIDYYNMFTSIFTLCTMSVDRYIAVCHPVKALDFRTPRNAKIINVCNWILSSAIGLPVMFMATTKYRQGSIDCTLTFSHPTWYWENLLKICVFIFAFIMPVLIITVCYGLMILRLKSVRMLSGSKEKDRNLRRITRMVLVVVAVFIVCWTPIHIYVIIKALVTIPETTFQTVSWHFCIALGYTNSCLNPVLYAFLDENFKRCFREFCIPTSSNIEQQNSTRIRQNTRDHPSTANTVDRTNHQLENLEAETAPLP

Delta-type opioid receptor, sequence (P41143 whole entry): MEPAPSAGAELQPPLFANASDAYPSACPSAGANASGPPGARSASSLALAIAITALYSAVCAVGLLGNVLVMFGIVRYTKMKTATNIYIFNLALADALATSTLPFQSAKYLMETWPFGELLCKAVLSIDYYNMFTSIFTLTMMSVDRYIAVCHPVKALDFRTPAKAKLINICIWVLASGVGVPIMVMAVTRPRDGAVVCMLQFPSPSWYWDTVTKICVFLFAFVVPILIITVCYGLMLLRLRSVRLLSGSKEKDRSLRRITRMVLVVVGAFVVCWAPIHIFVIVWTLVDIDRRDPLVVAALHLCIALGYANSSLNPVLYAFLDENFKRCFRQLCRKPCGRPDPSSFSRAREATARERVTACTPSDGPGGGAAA

In the case of `CN1CCNC(=O)[C@H](Cc2ccccc2)NC(=O)CNC(=O)[C@H](NC(=O)[C@@H](N)Cc2ccc(O)cc2)C1`, the Ki [1] is reported as 2.1 nM, the Ki [2] is reported as 340 nM and the ED50 (Rattus norvegicus) is reported as 0.027 µg. For the same molecule, the Ki (Mu-type opioid receptor) was 1.6 nM.

In the case of `CC1(C)SSC(C)(C)C(NC(=O)[C@@H](N)Cc2ccc(O)cc2)C(=O)NCC(=O)N[C@@H](Cc2ccccc2)C(=O)NC1C(=O)O` (single isomer, unassigned), the ED50 (Rattus norvegicus) is reported as 54 µg.

`C[C@@H](NC(=O)[C@@H](N)Cc1ccc(O)cc1)C(=O)NCC(=O)N(C)[C@@H](Cc1ccccc1)C(=O)NCCO` [DAMGO] gave an ED50 (Rattus norvegicus) of 0.14 µg.

`CN1CC[C@]23c4c5ccc(O)c4O[C@H]2[C@@H](O)C=C[C@H]3[C@H]1C5` [MORPHINE] showed an ED50 (Rattus norvegicus) of 2.4 µg.
